# Results: patent US20100075907A1, “NEUROMEDIN U RECEPTOR AGONISTS AND USES THEREOF” (priority 2006, published 2010)
# Residues, ends and D or L forms follow the SMILES beside them. No end group written: not given here. *: point of attachment. Succinimide(1-Et,3-yl) = CCN1C(=O)CC(*)C1=O; Palmitoyl = CCCCCCCCCCCCCCCC(=O)*
# What was measured:
# Format in all cases: cell-based
# mouse NMUR2 = mouse NMUR2 (Mus musculus, UniProt Q8BZ39); assay: FLIPR calcium mobilization assay, mouse NMUR2; set-up: expressed in transfected cells; host or cells: FLP-In CHO or HEK-293 FLP-In cells (pcDNA5); conditions: mouse NMUR2; for % Activity: maximum response at 1 μM compared to hNMU-25; for EC50: FLIPR
# Description: (§1) Human, mouse or rat cDNAs encoding NMUR1 or NMUR2 (as described in Howard et al. Nature 406: 70-74 (2000) were subcloned in pcDNA5 (Invitrogen) and transfected into FLP-In CHO cells and HEK-293 FLP-In cells purchased from Invitrogen (Carlsbad, Calif.) using lipofectamine (Invitrogen). The Flp-In system allows integration and expression of a particular gene of interest at a specific genomic location utilizing the Flp recombinase from yeast. The transfected cells were selected by growth in medium containing 200 μg/mL hygromycin (Invitrogen). Populations were frozen at early passage numbers, and these stocks were used for further studies. Stable clones that expressed the mRNAs were identified functionally by FLIPR as well as by RT-PCR. […] Two different rodent NMUR1 cell lines were thus generated: one with the codon as predicted from the genomic databases and another cell line with an engineered methionine (ATG) as the start codon. Additionally, stable cell lines expressing the human receptors were generated in HEK-293/aeq17 cells which stably express the aequorin gene under the CMV promoter. The human NMUR2 cDNA was cloned into pcDNA3.1 and human NMUR1 was subcloned into pIRES-puro (Clontech, Mountain View, Calif.), after transfection cells were selected in media containing G418 and either hygromycin (NMUR2) or puromycin (NMUR1).
# (§2) The NMU receptors signal primarily through Gαq/11 proteins; therefore calcium mobilization assays can be utilized for functional activity.
# (§3) Stable cell lines expressing human and or rodent NMUR1 or human NMUR2 receptors were plated at a density of 12,000 cells per well overnight on poly-lysine coated 384-well black-walled plates. The following day, the media was removed from the plates and the cells were subsequently loaded with Fluo-3 (Molecular Probes), a calcium sensitive dye, diluted in FLIPR buffer (1× Hank's buffered saline containing 20 mM HEPES, 0.1% BSA, 2.5 mM probenecid (Sigma) and 1.6 mM TR40). All reagents are from Invitrogen unless otherwise noted. Peptide stocks were resuspended in DMSO at a stock concentration of 2 mM and diluted in FLIPR buffer on the day of the experiment to a 4 μM working stock solution.
# (§4) After a 90 minute incubation at room-temperature, cell plates were loaded onto a FLIPR (Molecular Devices) to monitor cellular fluorescence (excitation=488 nm; emission=540 nm) before and after compound/peptide addition. Eight to twelve point dose responses were tested on NMUR-expressing cell lines using FLIPR with 1 μM peptide as the highest dose. The response after peptide addition was taken as the maximum fluorescence units minus the fluorescence immediately prior to stimulation for each well. EC50 values were calculated using GraphPad Prism (San Diego, Calif.) software.
# (§5) In vitro responses of Neuromedin U receptor agonists (NMU1 to NMU25) in the FLIPR assay for human (Table 3), mouse (Table 4) and rat (Table 5) NMUR1 and NMUR2. EC50s are reported in nM values. Percent activity refers to the maximum response at 1 μM compared to the hNMU-25 response at the same concentration. NT=not tested.
# rat NMUR1-ATG = target: T1, rat NMUR1-ATG (Rattus norvegicus, UniProt Q9JJI5); assay: FLIPR calcium mobilization assay, rat NMUR1-ATG; set-up: expressed in transfected cells; host or cells: FLP-In CHO or HEK-293 FLP-In cells (pcDNA5); conditions: rat NMUR1-ATG; for % Activity: maximum response at 1 μM compared to hNMU-25
# T1 sequence (Q9JJI5 1-425): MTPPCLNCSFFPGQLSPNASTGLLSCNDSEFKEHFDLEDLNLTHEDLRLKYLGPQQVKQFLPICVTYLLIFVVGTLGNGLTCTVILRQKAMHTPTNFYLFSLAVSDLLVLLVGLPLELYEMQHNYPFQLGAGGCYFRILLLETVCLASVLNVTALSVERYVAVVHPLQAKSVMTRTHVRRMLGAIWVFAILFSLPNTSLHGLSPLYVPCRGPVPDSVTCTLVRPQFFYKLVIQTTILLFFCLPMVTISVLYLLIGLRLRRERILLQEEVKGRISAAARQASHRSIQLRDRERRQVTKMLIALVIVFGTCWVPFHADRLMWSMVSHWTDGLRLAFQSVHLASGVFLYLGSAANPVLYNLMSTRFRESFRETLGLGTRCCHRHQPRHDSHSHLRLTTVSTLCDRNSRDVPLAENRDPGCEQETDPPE
# Description: as §1, §2, §3, §4, §5
# rat NMUR2 = rat NMUR2 (Rattus norvegicus, UniProt Q9ESQ4); assay: FLIPR calcium mobilization assay, rat NMUR2; set-up: expressed in transfected cells; host or cells: FLP-In CHO or HEK-293 FLP-In cells (pcDNA5); conditions: rat NMUR2; for % Activity: maximum response at 1 μM compared to hNMU-25
# Description: as §1, §2, §3, §4, §5
# hNMUR2 = hNMUR2 (Homo sapiens, UniProt Q9GZQ4); assay: FLIPR calcium mobilization assay, human NMUR2; set-up: expressed in transfected cells; host or cells: FLP-In CHO or HEK-293 FLP-In cells (pcDNA5); HEK-293/aeq17 lines (pcDNA3.1) were also made; conditions: human NMUR2; for % Activity: maximum response at 1 μM compared to hNMU-25; for EC50: FLIPR
# Description: as §1, §2, §3, §4, §5
# hNMUR1 = target: T2, hNMUR1 (Homo sapiens, UniProt Q9HB89); assay: FLIPR calcium mobilization assay, human NMUR1; set-up: expressed in transfected cells; host or cells: FLP-In CHO or HEK-293 FLP-In cells (pcDNA5); HEK-293/aeq17 lines (pIRES-puro) were also made; conditions: human NMUR1; for % Activity: maximum response at 1 μM compared to hNMU-25 response at same concentration
# T2 sequence (Q9HB89 1-426): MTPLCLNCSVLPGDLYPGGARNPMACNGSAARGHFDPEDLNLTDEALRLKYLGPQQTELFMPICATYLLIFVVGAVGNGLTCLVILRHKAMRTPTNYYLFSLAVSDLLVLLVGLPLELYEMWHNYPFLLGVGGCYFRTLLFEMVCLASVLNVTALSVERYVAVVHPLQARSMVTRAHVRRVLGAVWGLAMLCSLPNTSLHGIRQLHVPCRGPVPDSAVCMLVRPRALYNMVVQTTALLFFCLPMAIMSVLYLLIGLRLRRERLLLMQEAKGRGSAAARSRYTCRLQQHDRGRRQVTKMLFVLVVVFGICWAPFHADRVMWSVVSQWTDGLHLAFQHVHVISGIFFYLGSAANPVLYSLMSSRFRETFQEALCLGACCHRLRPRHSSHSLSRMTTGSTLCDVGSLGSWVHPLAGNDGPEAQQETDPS
# Description: as §1, §2, §3, §4, §5
# hNMUR2, sequence (Q9GZQ4 whole entry): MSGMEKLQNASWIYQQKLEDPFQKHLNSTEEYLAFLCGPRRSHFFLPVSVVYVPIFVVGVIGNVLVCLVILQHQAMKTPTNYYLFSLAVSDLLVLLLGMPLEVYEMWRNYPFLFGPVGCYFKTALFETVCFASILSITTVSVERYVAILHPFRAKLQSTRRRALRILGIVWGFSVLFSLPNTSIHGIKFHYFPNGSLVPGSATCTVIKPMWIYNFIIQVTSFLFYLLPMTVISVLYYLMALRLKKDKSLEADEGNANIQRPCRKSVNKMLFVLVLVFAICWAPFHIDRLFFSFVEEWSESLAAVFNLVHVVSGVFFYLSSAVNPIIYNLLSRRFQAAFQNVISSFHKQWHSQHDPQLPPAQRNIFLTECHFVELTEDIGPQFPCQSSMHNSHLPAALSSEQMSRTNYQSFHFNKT
# rat NMUR2, sequence (Q9ESQ4 whole entry): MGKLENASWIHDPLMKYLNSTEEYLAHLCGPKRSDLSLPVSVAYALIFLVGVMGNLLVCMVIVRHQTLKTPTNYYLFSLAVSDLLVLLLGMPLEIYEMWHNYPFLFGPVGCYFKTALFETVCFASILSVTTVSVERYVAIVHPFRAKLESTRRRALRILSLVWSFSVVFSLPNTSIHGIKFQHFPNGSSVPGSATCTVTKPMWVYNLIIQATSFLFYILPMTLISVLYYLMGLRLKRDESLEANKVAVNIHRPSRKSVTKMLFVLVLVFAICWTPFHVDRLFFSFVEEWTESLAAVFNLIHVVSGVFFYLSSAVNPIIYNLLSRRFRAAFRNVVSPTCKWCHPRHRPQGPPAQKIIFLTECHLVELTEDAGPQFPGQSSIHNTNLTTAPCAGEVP
# mouse NMUR2, sequence (Q8BZ39 whole entry): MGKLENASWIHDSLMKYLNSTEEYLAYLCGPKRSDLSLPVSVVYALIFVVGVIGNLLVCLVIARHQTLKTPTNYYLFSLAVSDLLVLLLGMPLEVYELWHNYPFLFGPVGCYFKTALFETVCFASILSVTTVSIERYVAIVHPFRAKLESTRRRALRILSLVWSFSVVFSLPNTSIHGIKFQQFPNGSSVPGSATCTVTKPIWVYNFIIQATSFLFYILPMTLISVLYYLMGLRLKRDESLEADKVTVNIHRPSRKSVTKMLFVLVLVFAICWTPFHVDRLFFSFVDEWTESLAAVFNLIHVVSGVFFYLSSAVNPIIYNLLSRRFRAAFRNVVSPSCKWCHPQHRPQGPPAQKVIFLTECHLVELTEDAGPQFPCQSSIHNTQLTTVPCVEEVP
Compound,% Activity (mouse NMUR2) [%],% Activity (rat NMUR1-ATG) [%],% Activity (rat NMUR2) [%],% Activity (hNMUR2) [%],% Activity (hNMUR1) [%],EC50 (mouse NMUR2) [nM],EC50 (hNMUR2) [nM],EC50 (rat NMUR1-ATG; FLIPR) [nM],EC50 (rat NMUR2; FLIPR) [nM],EC50 (hNMUR1; FLIPR) [nM]
H-FRVDEEFQSPFASQSRPYFLFRPRN-NH2 [NMU4],100,100,100,100,97.0,1.2,2.6,–,–,–
GYFLFRPRN-NH2 [NMU3],100,100,100,100,98.9,–,–,–,–,–
Ac-C2FRVDEEFQSPFASQSRGYFLFRPRN-CONH2 [NMU9] ({Ac-C(PEG 40 kDa)}-FRVDEEFQSPFASQSRGYFLFRPRN-NH2) [C2 = Cys(PEG)240 kDa from Nektar (mPEG2-MAL-40 k)],–,–,–,94.3,94.4,19,91.1,9.7,4.5,50.6
"CCN1C(=O)CC(SC[C@H](NC(C)=O)C(=O)N[C@@H](C)C(=O)N[C@@H](CO)C(=O)N[C@@H](CCC(N)=O)C(=O)N[C@@H](CO)C(=O)N[C@@H](CCCNC(=N)N)C(=O)NCC(=O)N[C@@H](Cc2ccc(O)cc2)C(=O)N[C@@H](Cc2ccccc2)C(=O)N[C@@H](CC(C)C)C(=O)N[C@@H](Cc2ccccc2)C(=O)N[C@@H](CCCNC(=N)N)C(=O)N2CCC[C@H]2C(=O)N[C@@H](CCCNC(=N)N)C(=O)N[C@@H](CC(N)=O)C(N)=O)C1=O (stereo partly shown) [NMU17] (Ac-C(Succinimide(1-Et,3-yl))ASQSRGYFLFRPRN-NH2)",100,100,100,99.8,100,–,1.5,–,–,–

# Second part, the compound after the results:
% Activity (mouse NMUR2) [%],% Activity (rat NMUR1-ATG) [%],% Activity (rat NMUR2) [%],% Activity (hNMUR2) [%],% Activity (hNMUR1) [%],EC50 (mouse NMUR2) [nM],EC50 (hNMUR2) [nM],EC50 (rat NMUR1-ATG; FLIPR) [nM],EC50 (rat NMUR2; FLIPR) [nM],EC50 (hNMUR1; FLIPR) [nM],Compound
100,100,100,105,95.9,–,–,–,–,–,"CCN1C(=O)CC(SC[C@H](NC(C)=O)C(=O)N[C@@H](Cc2ccccc2)C(=O)N[C@@H](CCC(N)=O)C(=O)N[C@@H](CO)C(=O)N2CCC[C@H]2C(=O)N[C@@H](Cc2ccccc2)C(=O)N[C@@H](C)C(=O)N[C@@H](CO)C(=O)N[C@@H](CCC(N)=O)C(=O)N[C@@H](CO)C(=O)N[C@@H](CCCNC(=N)N)C(=O)NCC(=O)N[C@@H](Cc2ccc(O)cc2)C(=O)N[C@@H](Cc2ccccc2)C(=O)N[C@@H](CC(C)C)C(=O)N[C@@H](Cc2ccccc2)C(=O)N[C@@H](CCCNC(=N)N)C(=O)N2CCC[C@H]2C(=O)N[C@@H](CCCNC(=N)N)C(=O)N[C@@H](CC(N)=O)C(N)=O)C1=O (stereo partly shown) [NMU19] (Ac-C(Succinimide(1-Et,3-yl))FQSPFASQSRGYFLFRPRN-NH2)"
100,100,98.8,105,95.6,–,–,–,–,–,"CCN1C(=O)CC(SC[C@H](NC(C)=O)C(=O)N[C@@H](CSC2CC(=O)N(CC)C2=O)C(=O)N[C@@H](Cc2ccccc2)C(=O)N[C@@H](CCCNC(=N)N)C(=O)N[C@H](C(=O)N[C@@H](CC(=O)O)C(=O)N[C@@H](CCC(=O)O)C(=O)N[C@@H](CCC(=O)O)C(=O)N[C@@H](Cc2ccccc2)C(=O)N[C@@H](CCC(N)=O)C(=O)N[C@@H](CO)C(=O)N2CCC[C@H]2C(=O)N[C@@H](Cc2ccccc2)C(=O)N[C@@H](C)C(=O)N[C@@H](CO)C(=O)N[C@@H](CCC(N)=O)C(=O)N[C@@H](CO)C(=O)N[C@@H](CCCNC(=N)N)C(=O)NCC(=O)N[C@@H](Cc2ccc(O)cc2)C(=O)N[C@@H](Cc2ccccc2)C(=O)N[C@@H](CC(C)C)C(=O)N[C@@H](Cc2ccccc2)C(=O)N[C@@H](CCCNC(=N)N)C(=O)N2CCC[C@H]2C(=O)N[C@@H](CCCNC(=N)N)C(=O)N[C@@H](CC(N)=O)C(N)=O)C(C)C)C1=O (stereo partly shown) [NMU22] (Ac-C(Succinimide(1-Et,3-yl))C(Succinimide(1-Et,3-yl))FRVDEEFQSPFASQSRGYFLFRPRN-NH2)"
82.4,80.8,52.2,63.9,34.4,–,–,–,–,–,"CCCCCCCCCCCCCCCC(=O)N[C@@H](CSC1CC(=O)N(CC)C1=O)C(=O)N[C@@H](Cc1ccccc1)C(=O)N[C@@H](CCCNC(=N)N)C(=O)N[C@H](C(=O)N[C@@H](CC(=O)O)C(=O)N[C@@H](CCC(=O)O)C(=O)N[C@@H](CCC(=O)O)C(=O)N[C@@H](Cc1ccccc1)C(=O)N[C@@H](CCC(N)=O)C(=O)N[C@@H](CO)C(=O)N1CCC[C@H]1C(=O)N[C@@H](Cc1ccccc1)C(=O)N[C@@H](C)C(=O)N[C@@H](CO)C(=O)N[C@@H](CCC(N)=O)C(=O)N[C@@H](CO)C(=O)N[C@@H](CCCNC(=N)N)C(=O)NCC(=O)N[C@@H](Cc1ccc(O)cc1)C(=O)N[C@@H](Cc1ccccc1)C(=O)N[C@@H](CC(C)C)C(=O)N[C@@H](Cc1ccccc1)C(=O)N[C@@H](CCCNC(=N)N)C(=O)N1CCC[C@H]1C(=O)N[C@@H](CCCNC(=N)N)C(=O)N[C@@H](CC(N)=O)C(N)=O)C(C)C (stereo partly shown) [NMU24] (Palmitoyl-C(Succinimide(1-Et,3-yl))FRVDEEFQSPFASQSRGYFLFRPRN-NH2)"
